One experiment deals with Cholinesterase (Homo sapiens, UniProt P06276).
Another experiment concerns the target T1, Acetylcholinesterase (Rattus norvegicus, UniProt P37136).
T1 sequence (P37136 whole entry): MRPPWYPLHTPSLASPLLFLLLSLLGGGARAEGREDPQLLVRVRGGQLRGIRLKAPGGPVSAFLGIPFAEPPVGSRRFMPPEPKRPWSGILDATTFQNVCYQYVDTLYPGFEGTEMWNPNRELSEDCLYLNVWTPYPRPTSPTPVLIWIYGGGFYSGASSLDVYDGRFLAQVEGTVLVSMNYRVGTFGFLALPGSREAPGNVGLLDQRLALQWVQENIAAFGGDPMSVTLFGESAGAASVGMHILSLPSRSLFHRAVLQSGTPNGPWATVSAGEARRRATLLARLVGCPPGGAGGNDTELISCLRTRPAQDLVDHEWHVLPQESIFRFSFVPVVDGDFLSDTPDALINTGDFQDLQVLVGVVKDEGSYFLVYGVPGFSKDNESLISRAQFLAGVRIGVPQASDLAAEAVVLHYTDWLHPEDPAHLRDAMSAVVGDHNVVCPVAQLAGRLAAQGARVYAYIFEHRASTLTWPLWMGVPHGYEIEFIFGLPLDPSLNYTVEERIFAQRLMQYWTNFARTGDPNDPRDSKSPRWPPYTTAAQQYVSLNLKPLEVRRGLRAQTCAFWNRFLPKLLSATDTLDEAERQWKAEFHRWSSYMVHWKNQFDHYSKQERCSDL
The experiment can be described thus: biochemical.

Cholinesterase, sequence (P06276 whole entry): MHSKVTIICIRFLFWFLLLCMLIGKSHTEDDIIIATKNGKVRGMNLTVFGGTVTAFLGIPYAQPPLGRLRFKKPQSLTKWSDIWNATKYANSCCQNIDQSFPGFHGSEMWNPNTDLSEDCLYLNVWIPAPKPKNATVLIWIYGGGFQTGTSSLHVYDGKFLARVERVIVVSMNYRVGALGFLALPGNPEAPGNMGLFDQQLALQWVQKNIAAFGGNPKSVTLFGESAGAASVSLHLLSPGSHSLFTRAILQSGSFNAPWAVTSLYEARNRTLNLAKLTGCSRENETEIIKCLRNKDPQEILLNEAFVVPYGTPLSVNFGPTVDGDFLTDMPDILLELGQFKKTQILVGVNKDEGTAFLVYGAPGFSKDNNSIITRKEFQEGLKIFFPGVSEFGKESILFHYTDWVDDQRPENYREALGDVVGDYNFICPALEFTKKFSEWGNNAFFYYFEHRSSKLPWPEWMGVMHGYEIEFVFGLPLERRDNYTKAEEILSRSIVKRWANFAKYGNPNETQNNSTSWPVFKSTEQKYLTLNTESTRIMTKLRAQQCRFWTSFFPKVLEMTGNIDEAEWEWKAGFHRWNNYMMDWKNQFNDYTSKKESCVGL

By IC50 is commonly meant the concentration at which inhibition is half-maximal. A high value points to weaker potency in that assay. Take `c1ccc2c(NCCCCCCCCNc3c4c(nc5ccccc35)CCCCC4)c3c(nc2c1)CCCCC3`: half-maximal inhibition against Cholinesterase (IC50) required 3.8 nM. `Clc1ccc2c(NCCCCCCCNc3c4c(nc5cc(Cl)ccc35)CCCC4)c3c(nc2c1)CCCC3`: the IC50 on Cholinesterase was found to be 26 nM; on Acetylcholinesterase, 0.07 nM. Compound `c1ccc2c(NCCCCCCCNc3c4c(nc5ccccc35)CCCCC4)c3c(nc2c1)CCCCC3` returned an IC50 on Cholinesterase of 2.6 nM. In other words, the single-digit nanomolar range. Turning to `c1ccc2c(NCCCCCCNc3c4c(nc5ccccc35)CCCCC4)c3c(nc2c1)CCCCC3`, the IC50 against Cholinesterase amounted to 3.3 nM; at Acetylcholinesterase it was 2.5 nM. For `Fc1ccc2c(NCCCCCCCCNc3c4c(nc5cc(F)ccc35)CCCC4)c3c(nc2c1)CCCC3`, the IC50 was determined as 164 nM against Cholinesterase and 0.7 nM against Acetylcholinesterase.

On Cholinesterase, `c1ccc2c(NCCCCCCCNc3c4c(nc5ccccc35)CCCC4)c3c(nc2c1)CCCC3` gave an IC50 of 54 nM. `c1ccc2c(NCCCCCCNc3c4c(nc5ccccc35)CCC4)c3c(nc2c1)CCC3` showed a 50% inhibitory concentration (IC50) against Cholinesterase of 273 nM. In the case of `Clc1ccc2c(NCCCCCCNc3c4c(nc5cc(Cl)ccc35)CCCC4)c3c(nc2c1)CCCC3`, the IC50 against Cholinesterase came out at 312 nM; at Acetylcholinesterase, 0.6 nM. On to `c1ccc2c(NCCCCCCNc3c4c(nc5ccccc35)CCCC4)c3c(nc2c1)CCCC3`, for which the figures for the half-inhibitory concentration (IC50) against Cholinesterase and against Acetylcholinesterase were 83 nM and 1.4 nM, respectively. Consider `c1ccc2c(NCCCCCCCCNc3c4c(nc5ccccc35)CCC4)c3c(nc2c1)CCC3`, for which, on Cholinesterase, the IC50 was found to be 165 nM. This lies in the sub-micromolar range. As for `Fc1ccc2c(NCCCCCCCNc3c4c(nc5cc(F)ccc35)CCCC4)c3c(nc2c1)CCCC3`, the IC50 against Cholinesterase came out at 257 nM; on Acetylcholinesterase, 0.6 nM. As to `Fc1ccc2c(NCCCCCCNc3c4c(nc5cc(F)ccc35)CCCC4)c3c(nc2c1)CCCC3`, the IC50 at Cholinesterase worked out at 45 nM; on Acetylcholinesterase, 0.9 nM. Take `c1ccc2c(NCCCCCCCCNc3c4c(nc5ccccc35)CCCC4)c3c(nc2c1)CCCC3`: the IC50 against Cholinesterase was determined as 53 nM; against Acetylcholinesterase it was 1.6 nM.

On Cholinesterase, `c1cnc2nc3c(c(NCCCCCCNc4c5c(nc6ncccc46)CCCC5)c2c1)CCCC3` had an IC50 of 93 nM. On the same count and under the same terms, under `c1cnc2nc3c(c(NCCCCCCCCNc4c5c(nc6ncccc46)CCCC5)c2c1)CCCC3` stands 23 nM. Consider `c1ccc2c(NCCCCCCCNc3c4c(nc5ccccc35)CCC4)c3c(nc2c1)CCC3`, for which the figures for the IC50 at Cholinesterase and at Acetylcholinesterase were 328 nM and 75 nM, respectively. For `c1cnc2nc3c(c(NCCCCCCCNc4c5c(nc6ncccc46)CCCC5)c2c1)CCCC3`, in that order: 59 nM and 1.3 nM.

The values are drawn from ChEMBL document CHEMBL1135422 (J Med Chem, 2002).
